Assay [1] has as its target T1, mutant (M287L) mouse glycine α1 receptor (Mus musculus, UniProt Q64018, M315L).
T1 sequence (Q64018 29-457 M315L): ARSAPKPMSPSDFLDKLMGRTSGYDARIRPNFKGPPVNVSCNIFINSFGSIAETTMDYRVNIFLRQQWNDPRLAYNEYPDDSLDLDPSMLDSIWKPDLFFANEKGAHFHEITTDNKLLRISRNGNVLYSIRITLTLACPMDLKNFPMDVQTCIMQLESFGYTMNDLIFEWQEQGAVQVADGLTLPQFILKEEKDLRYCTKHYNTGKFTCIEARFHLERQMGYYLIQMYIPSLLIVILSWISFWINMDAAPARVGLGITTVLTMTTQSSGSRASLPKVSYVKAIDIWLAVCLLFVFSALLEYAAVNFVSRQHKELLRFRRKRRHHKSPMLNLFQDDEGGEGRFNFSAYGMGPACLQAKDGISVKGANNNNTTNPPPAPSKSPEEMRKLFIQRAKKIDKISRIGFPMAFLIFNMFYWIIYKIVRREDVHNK
The settings on record: M287L mutation versus wild-type; cited from earlier work.

The test system of assay [2] is formalin-induced nociceptive behavior. Put plainly: rat formalin model of pain. The class given is in vivo.
Description: For in vivo studies, rats were subcutaneously injected with vHGlyRα1 or vHG, a control vector without al GlyR, into the plantar surface of the right hind foot. Analgesic effects of viral injections were assessed one week later by subcutaneous injection of formalin.
Specifically, 3-month-old male Sprague-Dawley rats (225-250 g) were injected with 200 μl (1×10^8 plaque forming units) of either vHGlyRα1 or vHG into the plantar surface of the right hind foot. One week later the analgesic properties of the vectors was assessed by subcutaneously injecting 50 μl of 2.5% formalin into the right hind foot and assessing pain-related behaviors as previously described (Goss et al., Gene Ther., 8, 551-6 (2001)). […] The beginning of second phase pain varied between animals from 20 to 40 minutes; this variation was independent of the vector used.
For assay [3], the target named is T2, vHGlyRα1 infected HEK 293T cells (Homo sapiens, UniProt P23415).
T2 construct: expressed in transfected cells; host or cells: HEK 293T cells infected with replication-defective HSV vector vHGlyRα1 (HCMV promoter), MOI 10
T2 sequence (P23415 29-457): T1 sequence (Q64018 29-457 M315L) with L287M, D334E, G337A, N368S, K429Q
Nature of the assay: glycine-mediated whole-cell currents, voltage-clamp recording. The format is cell-based. The settings on record: for mean peak current: 24 hours post-infection, MOI 10; for percent desensitization: 100×(1−ISS/Ipeak). As to the method: (§1) Human embryonic kidney (HEK) 293T cells were maintained as previously described (Qian et al., J. Physiol., 562, 319-31 (2005)). For recordings, HEK 293T cells were plated onto glass coverslips pretreated with poly-D-lysine (0.1 mg/ml) and rat-tail collagen (0.1 mg/ml; BD Biosciences, San Jose, Calif.) in 35 mm culture dishes at 1-2×10^5 cells per dish. 24 hours after plating, the cells were infected with the GlyR-HSV construct. For infections the growth medium was removed, the cells were washed twice with serum free growth medium, and vHGlyRα1 was added at a multiplicity of infection (MOI) of 10. The cells were then incubated at 37° C. for 1 hour. Following incubation, 1.5 ml of growth medium (with serum) was added and the cells were incubated for an additional 24 hours at 37° C. Recordings were then performed 24 hours post-infection at room temperature. Glycine-mediated whole-cell currents were recorded with an Axopatch 200 amplifier (Molecular Devices, Union City, Calif.) in voltage-clamp mode. Solutions were delivered via an in-house fabricated fast perfusion system (Qian et al., J. Physiol., 538, 65-77 (2002)). The external solution contains (in mM): 140 NaCl, 5 KCl, 2 CaCl2), 1 MgCl2, and 10 HEPES; pH is 7.2+0.05, adjusted with NaOH and osmolality 290+10 adjusted with sucrose as needed. The internal solution contains (in mM): 140 CsCl, 1 CaCl2), 1 MgCl2, 2 MgATP, 10 HEPES, and 10 EGTA; pH is 7.3+0.05, adjusted with CsOH and osmolality 300+0.05. Data were recorded with a Digidata 1322A digitizer under the control of pClamp 9.2 software (Molecular Devices) and all analyses were performed with Clampfit 9.2 (Molecular Devices) or Origin 7.0 (OriginLab, Northampton, Mass.). Percent desensitization was measured as 100×(1−ISS/Ipeak), where ISS and IPeak are the amplitudes of current at steady state and peak, respectively.

The subject of assay [4] is uninfected HEK 293T cells. The settings on record: uninfected HEK 293T cells (N=4). Here is the method: as §1, with “Solutions were delivered via an in-house fabricated fast perfusion system (Qian et al., J. Physiol., 538, 65-77 (2002)). The external solution contains (in mM): 140 NaCl, 5 KCl, 2 CaCl2), 1 MgCl2, and 10 HEPES; pH is 7.2+0.05, adjusted with NaOH and osmolality 290+10 adjusted with sucrose as needed. The internal solution contains (in mM): 140 CsCl, 1 CaCl2), 1 MgCl2, 2 MgATP, 10 HEPES, and 10 EGTA; pH is 7.3+0.05, adjusted with CsOH and osmolality 300+0.05.” left out

The mark [5] stands for this setting: higher glycine concentration (1 mM).
Setting [6] is: lower glycine concentration (50 uM).

Molecules are shown by their SMILES. Changes are numbered by the printed parent chain.

`FC(F)OC(F)(F)C(F)Cl` (stereo not shown) [enflurane]: the “sensitivity of the receptor to the volatile anesthetic” value in assay [1] is reported as “greatly enhanced sensitivity”.
As for `NCC(=O)O` [glycine], the “nociceptive behavior following glycine application” value in assay [2] (vHG transfected animals (control vector)) is reported as “small, transient, non-significant dip”. Further, in assay [2] (vHGlyRα1-infected animals, 50 μl of 100 mM glycine at the 30 minute time point), the “second phase pain following injection of glycine” value was “significantly reduced”. The figures for the mean peak current in assay [3] (50 uM glycine) and in assay [3] (1 mM glycine) were −3.57+0.59 nA and −9.25+1.47 nA, respectively. Also, the figures for the 10-90% rise time in assay [3] (setting [5]) and in assay [3] (setting [6]) were 11.4 ± 1.0 ms and 265.2 ± 79.1 ms, respectively. For the same molecule, the percent desensitization in assay [3] (setting [5]) was 89.8+1.1%; in assay [3] (setting [6]), 73.4+7.3%. The “current response to application of glycine” value in assay [4] is “failed to elicit a current response”.

Source of the values: US11725038B2 (priority 2007, dated 2023).
